From PubChem BioAssay AID1259407 (Chemical Carcinogenesis Research Information System (CCRIS), 2018)
Activity calls are given as the source filed them. No rule for the calls is given here.

Tested on: CCRIS mutagenicity, Ames/micronucleus/aberration tests
Experiment: CCRIS mutagenicity studies
[1] = Test System: AMES SALMONELLA TYPHIMURIUM, Strain/Indicator: TA98, Metabolic Activation: HAMSTER, LIVER, S-9, AROCLOR 1254 (10%), Method: PREINCUBATION
[2] = Test System: AMES SALMONELLA TYPHIMURIUM, Strain/Indicator: TA98, Metabolic Activation: NONE, Method: PREINCUBATION
[3] = Test System: AMES SALMONELLA TYPHIMURIUM, Strain/Indicator: TA98, Metabolic Activation: RAT, LIVER, S-9, AROCLOR 1254 (10%), Method: PREINCUBATION
[4] = Test System: AMES SALMONELLA TYPHIMURIUM, Strain/Indicator: TA100, Metabolic Activation: HAMSTER, LIVER, S-9, AROCLOR 1254 (10%), Method: PREINCUBATION
[5] = Test System: AMES SALMONELLA TYPHIMURIUM, Strain/Indicator: TA100, Metabolic Activation: NONE, Method: PREINCUBATION
[6] = Test System: AMES SALMONELLA TYPHIMURIUM, Strain/Indicator: TA100, Metabolic Activation: RAT, LIVER, S-9, AROCLOR 1254 (10%), Method: PREINCUBATION
[7] = Test System: AMES SALMONELLA TYPHIMURIUM, Strain/Indicator: TA1535, Metabolic Activation: HAMSTER, LIVER, S-9, AROCLOR 1254 (10%), Method: PREINCUBATION
[8] = Test System: AMES SALMONELLA TYPHIMURIUM, Strain/Indicator: TA1535, Metabolic Activation: NONE, Method: PREINCUBATION
[9] = Test System: AMES SALMONELLA TYPHIMURIUM, Strain/Indicator: TA1535, Metabolic Activation: RAT, LIVER, S-9, AROCLOR 1254 (10%), Method: PREINCUBATION
[10] = Test System: AMES SALMONELLA TYPHIMURIUM, Strain/Indicator: TA1537, Metabolic Activation: HAMSTER, LIVER, S-9, AROCLOR 1254 (10%), Method: PREINCUBATION
[11] = Test System: AMES SALMONELLA TYPHIMURIUM, Strain/Indicator: TA1537, Metabolic Activation: NONE, Method: PREINCUBATION
[12] = Test System: AMES SALMONELLA TYPHIMURIUM, Strain/Indicator: TA1537, Metabolic Activation: RAT, LIVER, S-9, AROCLOR 1254 (10%), Method: PREINCUBATION
[13] = Test System: AMES SALMONELLA TYPHIMURIUM, Strain/Indicator: TA98, Metabolic Activation: NONE, Method: STANDARD PLATE
[14] = Test System: AMES SALMONELLA TYPHIMURIUM, Strain/Indicator: TA100, Metabolic Activation: NONE, Method: STANDARD PLATE
[15] = Test System: AMES SALMONELLA TYPHIMURIUM, Strain/Indicator: TA1535, Metabolic Activation: NONE, Method: STANDARD PLATE
[16] = Test System: AMES SALMONELLA TYPHIMURIUM, Strain/Indicator: TA1537, Metabolic Activation: NONE, Method: STANDARD PLATE
[17] = Test System: AMES SALMONELLA TYPHIMURIUM, Strain/Indicator: TA100, Metabolic Activation: RAT, LIVER, S-9, AROCLOR 1254, Method: STANDARD PLATE

O=C(Nc1ccc(Cl)cc1)Nc1ccc(Cl)c(Cl)c1 was tested, and the mutagenic call [1] was “inactive; negative”, the mutagenic call [2] was “inactive; negative” and the mutagenic call [3] was “inactive; negative”. For the same compound, the mutagenic call [4] was “inactive; negative”, the mutagenic call [5] was “inactive; negative” and the mutagenic call [6] was “inactive; negative”. For the same compound, the mutagenic call [7] was “inactive; negative”, the mutagenic call [8] was “inactive; negative” and the mutagenic call [9] was “inactive; negative”. The mutagenic call [10] was “inactive; negative”, the mutagenic call [11] was “inactive; negative” and the mutagenic call [12] was “inactive; negative”.

For O[C@H]1C=Cc2c(ccc3c(Cl)c4ccccc4cc23)[C@@H]1O, the mutagenic call (Test System: AMES SALMONELLA TYPHIMURIUM, Strain/Indicator: TA100, Metabolic Activation: RAT, LIVER, S-9, PCB, Method: STANDARD PLATE) was “active; positive”.

For CC(C)OC(=O)C(C)(C)Oc1ccc(C(=O)c2ccc(Cl)cc2)cc1, the mutagenic call [13] was “inactive; negative”, the mutagenic call (Test System: AMES SALMONELLA TYPHIMURIUM, Strain/Indicator: TA98, Metabolic Activation: RAT, LIVER, S-9, PHENOBARBITAL AND 5,6-BENZOFLAVONE, Method: STANDARD PLATE) was “inactive; negative” and the mutagenic call [14] was “inactive; negative”. For the same compound, the mutagenic call (Test System: AMES SALMONELLA TYPHIMURIUM, Strain/Indicator: TA100, Metabolic Activation: RAT, LIVER, S-9, PHENOBARBITAL AND 5,6-BENZOFLAVONE, Method: STANDARD PLATE) was “inactive; negative”, the mutagenic call [15] was “inactive; negative” and the mutagenic call (Test System: AMES SALMONELLA TYPHIMURIUM, Strain/Indicator: TA1535, Metabolic Activation: RAT, LIVER, S-9, PHENOBARBITAL AND 5,6-BENZOFLAVONE, Method: STANDARD PLATE) was “inactive; negative”. For the same compound, the mutagenic call [16] was “inactive; negative”, the mutagenic call (Test System: AMES SALMONELLA TYPHIMURIUM, Strain/Indicator: TA1537, Metabolic Activation: RAT, LIVER, S-9, PHENOBARBITAL AND 5,6-BENZOFLAVONE, Method: STANDARD PLATE) was “inactive; negative” and the mutagenic call (Test System: E. COLI, Strain/Indicator: WP2 UVRA, Metabolic Activation: NONE, Method: STANDARD PLATE) was “inactive; negative”. The mutagenic call (Test System: E. COLI, Strain/Indicator: WP2 UVRA, Metabolic Activation: RAT, LIVER, S-9, PHENOBARBITAL AND 5,6-BENZOFLAVONE, Method: STANDARD PLATE) was “inactive; negative”.

For Cl/C=C/CCl, the mutagenic call (End Point: IN VITRO CHROMOSOMAL ABERRATIONS, Test System: CHL CELLS, Metabolic Activation: RAT, LIVER, S-9, SODIUM PHENOBARBITAL AND 5,6-BENZOFLAVONE) was “active; positive (structural and ploidy changes)”, the mutagenic call (End Point: IN VITRO CHROMOSOMAL ABERRATIONS, Test System: CHO CELLS, Metabolic Activation: NONE) was “inactive; negative; previous trial yielded positive result at 49.1 ug/ml but no dose-respo” and the mutagenic call (End Point: IN VITRO CHROMOSOMAL ABERRATIONS, Test System: CHO CELLS, Metabolic Activation: RAT, LIVER, S-9, AROCLOR 1254) was “inactive; negative”. For the same compound, the mutagenic call (Test System: AMES SALMONELLA TYPHIMURIUM, Strain/Indicator: RSJ100, Metabolic Activation: NONE, Method: VAPOR PHASE) was “active; positive”, the mutagenic call (Test System: AMES SALMONELLA TYPHIMURIUM, Strain/Indicator: TA98, Metabolic Activation: HAMSTER, LIVER, S-9, AROCLOR 1254, Method: STANDARD PLATE) was “active; positive” and the mutagenic call (Test System: AMES SALMONELLA TYPHIMURIUM, Strain/Indicator: TA98, Metabolic Activation: NONE, Method: DESICCATOR) was “active; positive”. The mutagenic call [13] was “active; positive”, the mutagenic call (Test System: AMES SALMONELLA TYPHIMURIUM, Strain/Indicator: TA98, Metabolic Activation: RAT, LIVER, S-9, AROCLOR 1254, Method: DESICCATOR) was “active; positive” and the mutagenic call (Test System: AMES SALMONELLA TYPHIMURIUM, Strain/Indicator: TA98, Metabolic Activation: RAT, LIVER, S-9, AROCLOR 1254, Method: STANDARD PLATE) was “active; positive”. For the same compound, the mutagenic call (Test System: AMES SALMONELLA TYPHIMURIUM, Strain/Indicator: TA100, Metabolic Activation: HAMSTER, LIVER, S-9, AROCLOR 1254, Method: STANDARD PLATE) was “active; positive”, the mutagenic call (Test System: AMES SALMONELLA TYPHIMURIUM, Strain/Indicator: TA100, Metabolic Activation: NONE, Method: DESICCATOR) was “active; positive” and the mutagenic call [14] was “active; positive”. For the same compound, the mutagenic call (Test System: AMES SALMONELLA TYPHIMURIUM, Strain/Indicator: TA100, Metabolic Activation: RAT, LIVER, S-9, AROCLOR 1254, Method: DESICCATOR) was “active; positive”, the mutagenic call [17] was “active; positive” and the mutagenic call (Test System: AMES SALMONELLA TYPHIMURIUM, Strain/Indicator: TA1535, Metabolic Activation: HAMSTER, LIVER, S-9, AROCLOR 1254, Method: STANDARD PLATE) was “active; positive”. For the same compound, the mutagenic call (Test System: AMES SALMONELLA TYPHIMURIUM, Strain/Indicator: TA1535, Metabolic Activation: NONE, Method: DESICCATOR) was “active; positive”, the mutagenic call [15] was “active; positive” and the mutagenic call (Test System: AMES SALMONELLA TYPHIMURIUM, Strain/Indicator: TA1535, Metabolic Activation: RAT, LIVER, S-9, AROCLOR 1254, Method: DESICCATOR) was “active; positive”. The mutagenic call (Test System: AMES SALMONELLA TYPHIMURIUM, Strain/Indicator: TA1535, Metabolic Activation: RAT, LIVER, S-9, AROCLOR 1254, Method: STANDARD PLATE) was “active; positive”, the mutagenic call (Test System: AMES SALMONELLA TYPHIMURIUM, Strain/Indicator: TA1537, Metabolic Activation: HAMSTER, LIVER, S-9, AROCLOR 1254, Method: STANDARD PLATE) was “inactive; negative” and the mutagenic call [16] was “inactive; negative”. For the same compound, the mutagenic call (Test System: AMES SALMONELLA TYPHIMURIUM, Strain/Indicator: TA1537, Metabolic Activation: RAT, LIVER, S-9, AROCLOR 1254, Method: STANDARD PLATE) was “inactive; negative”, the mutagenic call (Test System: AMES SALMONELLA TYPHIMURIUM, Strain/Indicator: TPT100, Metabolic Activation: NONE, Method: VAPOR PHASE) was “active; positive” and the mutagenic call (Test System: UDS HUMAN HEPATOCYTES, Strain/Indicator: THY INCORP, Metabolic Activation: NONE, Method: AUTORADIOGRAPHY) was “active; positive”. For the same compound, the mutagenic call (Test System: UDS RAT HEPATOCYTES, Strain/Indicator: THY INCORP, Metabolic Activation: NONE, Method: AUTORADIOGRAPHY) was “active; positive” and the mutagenic call (Test System: UDS RAT HEPATOCYTES, Strain/Indicator: THY INCORP, Metabolic Activation: NONE, Method: IN VIVO-IN VITRO) was “inactive; negative”.

With O=c1c2ccc(OCC3CO3)cc2sn1CC1CO1 (stereo not drawn) the mutagenic call [14] was “active; positive”.

For CCOP(=S)(OCC)SCSC(C)(C)C, the mutagenic call [1] was “inactive; negative”, the mutagenic call [2] was “inactive; negative” and the mutagenic call [3] was “inactive; negative”. The mutagenic call [4] was “inactive; negative”, the mutagenic call [5] was “inactive; negative” and the mutagenic call [6] was “inactive; negative”. The mutagenic call [7] was “inactive; negative”, the mutagenic call [8] was “inactive; negative” and the mutagenic call [9] was “inactive; negative”. For the same compound, the mutagenic call [10] was “inactive; negative”, the mutagenic call [11] was “inactive; negative” and the mutagenic call [12] was “inactive; negative”.

O[C@H]1c2ccccc2-c2cc3ccc4ccccc4c3cc2[C@@H]1O was tested, and the mutagenic call [17] was “active; positive”.
